Test results reported in patent publication US9458463B2, “Method for treatment of diabetes by a small molecule inhibitor for GRK5” (MAX-PLANCK-GESELLSCHAFT ZUR FÖRDERUNG DER WISSENSCHAFTEN …, priority 2010, dated 2016).

Legend:
full length GRK5 = molecular target: T1, full length GRK5 (Homo sapiens, UniProt P34947); test: GRK5 kinase activity assay, ADP Glo Kinase Assay technology (Promega); type: biochemical; details: group II; ADP Glo Kinase Assay (Table 9-B)
T1 construct: 6/2 fold concentrated full length GRK5 (Millipore, #14-714) in reaction buffer; purchased Millipore 14-714
T1 sequence (P34947 whole entry): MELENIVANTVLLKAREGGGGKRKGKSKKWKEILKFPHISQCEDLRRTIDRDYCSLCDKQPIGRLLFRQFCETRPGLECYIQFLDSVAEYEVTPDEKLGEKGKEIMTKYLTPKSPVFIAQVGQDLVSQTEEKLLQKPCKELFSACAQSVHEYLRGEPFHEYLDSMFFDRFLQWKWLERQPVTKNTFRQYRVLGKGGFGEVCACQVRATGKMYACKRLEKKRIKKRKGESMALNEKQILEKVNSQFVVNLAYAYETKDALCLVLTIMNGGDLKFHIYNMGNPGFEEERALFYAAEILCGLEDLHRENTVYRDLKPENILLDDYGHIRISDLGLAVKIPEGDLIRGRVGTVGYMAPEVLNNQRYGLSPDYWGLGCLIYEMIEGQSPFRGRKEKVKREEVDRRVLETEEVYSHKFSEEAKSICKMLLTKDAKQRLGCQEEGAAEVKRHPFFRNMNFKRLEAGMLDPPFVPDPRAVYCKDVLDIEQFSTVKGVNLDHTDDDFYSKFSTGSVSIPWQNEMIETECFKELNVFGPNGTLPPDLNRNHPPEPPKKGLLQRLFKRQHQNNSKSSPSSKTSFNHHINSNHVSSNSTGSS
Experimental: The maximal compound assay concentration was set to 100 μM, representing the compound assay concentration used in the primary screen.
Increasing concentrations of GRK5 are incubated together with 100 μM ATP in the absence and presence of 10 μM casein in a reaction buffer. Within this incubation non-phosphorylated casein is converted into phosphorylated casein and ATP is converted into ADP. Thereafter nonconverted ATP is digested into AMP by addition of the ADP-Glo™ Reagent. Subsequently the ADP that is produced by GRK5 activity is phosphorylated back to ATP by addition of Promega Kinase Detection Reagent. These ATP levels serve as measure for the GRK5 activity and are quantified by a luciferase/luciferin reaction.
For GRK5 kinase activity assay, the following protocol was used:
The reaction buffer used was composed of: 20 mM MES pH 6.0, 1 mM DTT, 10 mM MgCl2, 0.01% Tween20 and the reaction volume was 6 μL.
Firstly 4 μL 6/4 fold concentrated substrate and 6/4 fold concentrated ATP in 1 fold concentrated reaction buffer are added to each well of the assay plate. Subsequently 67 nL […] concentrated test compound in 100% DMSO are added to each well except to C− and C+ wells using pin tool. Then 67 nL 100% DMSO are pipetted to C− (no kinase, no compound) and C+ (no compound) wells using pin-tool and 2 μL reaction buffer are added to C− wells. […] After incubation for 120 min. at room temperature 6 μL ADP-Glo™ Reagent (ADP Glo™ Kinase Assay Kit: Promega, V9101) are added to each well to stop the kinase reaction and deplete the unconsumed ATP. After a second incubation for 40 min. at room temperature 12 μL of Kinase Detection Reagent are added to convert ADP to ATP and start luciferase/luciferin reaction for detection of ATP. […] Finally, after incubation for 40 min at room temperature the luminescence intensity was measured.
The activity of the compounds was classified according to IC50 for binding sites of Grk5 into the following ranges:
8800 Customer compounds were screened for their ability to inhibit the enzymatic activity of GRK5. Screening was performed using the ADP Glo™ Kinase Assay technology (Promega). The small molecular weight compounds were delivered at 10 mM stock concentration and were tested at a final assay concentration of 100 μM.
IC50 values were determined in triplicates at 12 concentrations with a dilution factor of three. Triplicates were measured on three different assay plates. The maximal compound assay concentration was set to 100 μM representing the compound assay concentration used in the primary screen. A larger maximal compound assay concentration could not be achieved since the maximal compound concentration on the compound plates was 10 mM (>1% DMSO concentration in the assay).

[1] = test system: beta-TC6 insulinoma cells; test: Insulin release by beta-TC6 cells, rat/mouse insulin ELISA, high glucose; type: cell-based; details: for activation at 5 µM: Mus musculus, group II, 2 h, high glucose (4.5 g/L), % increase in regard to DMSO control (set at 0%); for activation at 5 µM / Insulin release by beta-TC6 cells compared with positive control Sunitinib: 5 μM; for Insulin release by beta-TC6 cells compared with positive control Sunitinib: high glucose
Experimental: (§1) Release of insulin was detected using a rat/mouse insulin ELISA.
After incubation, the supernatant of the beta-TC6 insulinoma cells was diluted 1:20. The insulin release was measured with rat/mouse insulin ELISA (Merck Millipore Darmstadt, Cat. # EZRMI-13K) by following the manufacture protocol. The enzyme activity of the horseradish peroxidase of the immobilized biotinylated antibodies was monitored spectrophotometrically by the increased absorbency at 490 nm, and corrected by the absorbency at 610 nm.
as §1
The effect on the insulin release of each kinase depletion was monitored by using a rat/mouse insulin ELISA.
For the validation of the negative modulating kinases SCYL1, GRK5, and ADCK1, the target genes were depleted using four different siRNA-sequences each (FIG. 2A-D). The gene-depletion was measured via mRNA-levels after 72 hours while the insulin release was measured using a rat/mouse insulin ELISA after two hours incubation.

3T3-L1 cells = test: Cell viability assay (CellTiter-Glo / automated cell number) in 3T3-L1; type: cell-based; details: Mus musculus, read-out: Inhibition of cell viability IC50
Excerpt: (§2) Luminescent cell viability assay. For the detection of cell viability, the CellTiter-Glo® Luminescent Cell Viability Assay was used. This test is based on a luciferase reaction to measure the amount of ATP in cells. This correlates directly with the number of cells and their viability because cells lose the ability to synthesize ATP directly after e.g. loss of membrane integrity or a cytotoxic event. The protocol was adapted to 24 well plates and to the different culture conditions resulting in a standardized protocol which is described below. Cell lysis, inhibition of endogenous ATPases and detection of ATP was performed by adding the CellTiter-Glo® Reagent to the culture wells. Per well, 100 μl reagent were mixed with the same volume of proper Medium. Lysing of the cells took place by 10 min incubation at RT and moderate shaking. Three times 50 μl cell lysate was transferred into a white 96 well plate to eliminate stray light, and the bioluminescence was measured.
(§3) In a 96 well dish 10000 cells per well (100 μl) were seed and treated for 72 h. At the end of the treatment, cells were fixed with 4% paraformaldehyde in PBS for 15 minutes, permeabilized with 0.1% triton-X 100 in PBS for 15 minutes and stained with Hoechst 33342 (20 μg/ml in PBS; dilute from 20 mg/ml stock) directly to cells in 100 μl medium in PBS for 30 minutes at 37° C. Stained cells were imaged with a Cellomics ArrayScan VT I automated microscope. Images were analyzed with vHCS Scan Target Activation software v5.1.2 to identify apoptotic cells. Six fields per well of a 96 well plate we re-imaged at 10× magnification. First, cells were identified by their nuclei staining in channel 1 of Cellomics and their amount. Staining intensity was plotted and compared between NT controls and compound treated cells. Finally, data was obtained using vHCS View software v 5.1.2 and the numbers of cells present in the 96 well were identified as “Valid Object Count” whereas the percentage of infection was determined as “% selected”. IC50 values have been calculated accordingly.

beta TC6 cells = test: Cell viability assay (CellTiter-Glo / automated cell number) in beta TC6; type: cell-based; details: Mus musculus, read-out: Inhibition of cell viability IC50
Excerpt: as §2, §3

C2C12 cells = test: Cell viability assay (CellTiter-Glo / automated cell number) in C2C12; type: cell-based; details: Mus musculus, read-out: Inhibition of cell viability IC50
Excerpt: as §2, §3

HepG2 cells = test: Cell viability assay (CellTiter-Glo / automated cell number) in HepG2; type: cell-based; details: Homo sapiens, read-out: Inhibition of cell viability IC50
Excerpt: as §2, §3

| SMILES | IC50 (full length GRK5) | activation at 5 µM ([1]; Beta-TC6, 2 h) | IC50 (3T3-L1 cells) | IC50 (beta TC6 cells) | IC50 (C2C12 cells) | IC50 (HepG2 cells) | activation at 5 µM ([1]; Beta-TC6) | Increase in insulin release ([1]; positive control of the siRNA validation, Sunitinib 5 μM, beta-TC6) | Insulin release by beta-TC6 cells compared with positive control Sunitinib [1] |
| --- | --- | --- | --- | --- | --- | --- | --- | --- | --- |
| CCC(NC(=O)c1ccc2c(c1)/C(=C/c1[nH]c(C)c(C(=O)NCCN3CCCC3)c1C)C(=O)N2)c1ccc(F)c(F)c1 (centres unmarked) [II.10, (3Z)-N-[1-(3,4-difluorophenyl)propyl]-3-({3,5-dimethyl-4-[(2-pyrrolidin-1-ylethyl)carbamoyl]-1H-pyrrol-2-yl}methylene)-2-oxoindoline-5-carboxamide] | 100 to 1000 nM | 164% | > 10000 nM | 670 nM | 3230 nM | 630 nM |  |  |  |
| CCC(NC(=O)c1ccc2c(c1)/C(=C/c1[nH]c(C)c(C(=O)NCCN3CCCC3)c1C)C(=O)N2)c1cccc(Cl)c1 (centres unmarked) [II.11, (3Z)-N-[1-(3-chlorophenyl)propyl]-3-({3,5-dimethyl-4-[(2-pyrrolidin-1-ylethyl)carbamoyl]-1H-pyrrol-2-yl}methylene)-2-oxoindoline-5-carboxamide] | 100 to 1000 nM | 96% | > 10000 nM | 960 nM | 3370 nM | 800 nM |  |  |  |
| Cc1ccc([C@@H](C)NC(=O)c2ccc3c(c2)/C(=C/c2[nH]c(C)c(C(=O)N4CCN(C)CC4)c2C)C(=O)N3)cc1 [II.32, (3Z)-3-({3,5-dimethyl-4-[(4-methylpiperazin-1-yl)carbonyl]-1H-pyrrol-2-yl}methylene)-N-[(1R)-1-(4-methylphenyl)ethyl]-2-oxoindoline-5-carboxamide] | 1000 to 2000 nM | 143% | 700 nM | 1600 nM | 4250 nM | 1230 nM |  |  |  |
| Cc1cccc(C(C)NC(=O)c2ccc3c(c2)/C(=C/c2[nH]c(C)c(C(=O)N4CCN(C)CC4)c2C)C(=O)N3)c1 (centres unmarked) [II.51, (3Z)-3-({3,5-dimethyl-4-[(4-methylpiperazin-1-yl)carbonyl]-1H-pyrrol-2-yl}methylene)-N-[1-(3-methylphenyl)ethyl]-2-oxoindoline-5-carboxamide] | 2000 to 10000 nM | 252% | 1360 nM | 1970 nM | 3340 nM | 1110 nM |  |  |  |
| Cc1[nH]c(/C=C2\C(=O)Nc3ccc(C(=O)N[C@H](C)c4ccc(Cl)cc4)cc32)c(C)c1C(=O)N1CCCC1 [II.67, (3Z)-N-[(1R)-1-(4-chlorophenyl)ethyl]-3-{[3,5-dimethyl-4-(pyrrolidin-1-ylcarbonyl)-1H-pyrrol-2-yl]methylene}-2-oxoindoline-5-carboxamide] | 100 to 1000 nM | 159% | 1520 nM | 1940 nM | 3940 nM | 1470 nM |  |  |  |
| CC[C@@H](NC(=O)c1ccc2c(c1)/C(=C/c1[nH]c(C)c(CCC(=O)O)c1C)C(=O)N2)c1ccccc1 [II.130, (3Z)-3-{2,4-dimethyl-5-[2-oxo-5-(1R)-(1-phenyl-propylcarbamoyl)-1,2-dihydro-indol-3-ylidenemethyl]-1H-pyrrol-3-yl}-propionic acid] | 100 to 1000 nM | 103% | > 10000 nM | 8520 nM | > 10000 nM | 1580 nM |  |  |  |
| CCC(NC(=O)c1ccc2c(c1)/C(=C/c1[nH]c(C)c(CCC(=O)O)c1C)C(=O)N2)c1ccc(Cl)cc1 (centres unmarked) [II.132, (3Z)-3-(5-{5-[1-(4-chloro-phenyl)-propylcarbamoyl]-2-oxo-1,2-dihydro-indol-3-ylidenemethyl}-2,4-dimethyl-1H-pyrrol-3-yl)-propionic acid] | 100 to 1000 nM | 117% |  |  |  |  |  |  |  |
| CCC(NC(=O)c1ccc2c(c1)/C(=C/c1[nH]c(C)c(CCC(=O)O)c1C)C(=O)N2)c1ccc(F)c(F)c1 (centres unmarked) [II.133, (3Z)-3-(5-{5-[1-(3,4-difluoro-phenyl)-propylcarbamoyl]-2-oxo-1,2-dihydro-indol-3-ylidenemethyl}-2,4-dimethyl-1H-pyrrol-3-yl)-propionic acid] | 100 to 1000 nM | 131% |  |  |  |  |  |  |  |
| Cc1[nH]c(/C=C2\C(=O)Nc3ccc(C(=O)O)cc32)c(C)c1C(=O)O [II.139, (3Z)-3-(4-carboxy-3,5-dimethyl-1H-pyrrol-2-ylmethylene)-2-oxo-2,3-dihydro-1H-indole-5-carboxylic acid] | 1000 to 2000 nM |  | 1340 nM | > 10000 nM | > 10000 nM | > 10000 nM |  |  |  |
| COC(=O)[C@@H](Cc1ccccc1)NC(=O)c1c(C)[nH]c(/C=C2\C(=O)Nc3ccc(C(=O)O)cc32)c1C [II.140, (3Z)-3-[4-((1R)-1-methoxycarbonyl-2-phenyl-ethylcarbamoyl)-3,5-dimethyl-1H-pyrrol-2-ylmethylene]-2-oxo-2,3-dihydro-1H-indole-5-carboxylic acid] | 1000 to 2000 nM |  | 4000 nM | > 10000 nM | > 10000 nM | > 10000 nM |  |  |  |
| COC(=O)[C@H](COC(C)(C)C)NC(=O)c1c(C)[nH]c(/C=C2\C(=O)Nc3ccc(C(=O)O)cc32)c1C [II.141, (3Z)-3-[4-(2-tert-butoxy-(1S)-1-methoxycarbonyl-ethylcarbamoyl)-3,5-dimethyl-1H-pyrrol-2-ylmethylene]-2-oxo-2,3-dihydro-1H-indole-5-carboxylic acid] | 2000 to 10000 nM |  | 3410 nM | > 10000 nM | > 10000 nM | > 10000 nM |  |  |  |
| CCN(CC)CCNC(=O)c1c(C)[nH]c(/C=C2\C(=O)Nc3ccc(F)cc32)c1C [Sunitinib, reference compound] |  |  |  |  |  |  | 80% | 76.52±13% |  |
| NC(=O)c1ccc(Nc2cc3[nH]c(-c4cccc(F)c4)cc3cn2)cc1 [compound 6, 4-[[2-(3-fluorophenyl)-1H-pyrrolo[3,2-c]pyridin-6-yl]amino]benzamide] |  |  |  |  |  |  |  |  | level similar to Sunitinib |
| Cn1c(-c2cccnc2)cc2c(Nc3cccc(C(F)(F)F)c3)nccc21 [compound 243, 1-methyl-2-(3-pyridyl)-N-[3-(trifluoromethyl)phenyl]pyrrolo[3,2-c]pyridin-4-amine] |  |  |  |  |  |  |  |  | better effect on the insulin release by beta-TC6 cells than the positive control Sunitinib |
